Measurements taken from patent US10285986B2, “Compounds and anti-tumor NQO1 substrates” (The Board of Trustees of the University of Illinois, priority 2011, dated 2019).
Converted amounts (≈) assume the structure as drawn. “And” between values parts separate entries of the source, which are not always exact repeats. Equal entries are not always repeated. Where two headings read alike, the source gives them in different places.

Columns and labels:
[1] = Maximum tolerated dose in mice; settings: mouse, ip
Excerpt: Because of the difficulty of repeated tail vein injections in mice, our group is using IP administration of compound.
All of these derivatives are currently being assessed for their maximum tolerated dose (MTD) in healthy mice. Compounds are formulated in HPβCD and delivered by IP injection to two mice once daily for five days.

[2] = molecular target: NQO1 (Homo sapiens, UniProt P15559); assay: NQO1 enzymatic measurements in vitro; format: biochemical; settings: 1 μM substrate
Chain of NQO1 (P15559 whole entry): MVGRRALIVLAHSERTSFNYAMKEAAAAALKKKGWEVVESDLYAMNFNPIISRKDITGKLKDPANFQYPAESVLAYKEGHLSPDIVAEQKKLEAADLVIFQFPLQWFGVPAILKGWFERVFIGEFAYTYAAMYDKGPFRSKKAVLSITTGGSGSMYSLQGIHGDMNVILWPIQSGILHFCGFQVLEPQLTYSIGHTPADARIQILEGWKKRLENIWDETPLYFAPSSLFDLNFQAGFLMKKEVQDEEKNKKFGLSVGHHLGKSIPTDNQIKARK
Method: As further evidence that the activity of these DNQ derivatives is dependent on their ability to be reduced by NQO1, full enzymatic measurements in vitro were performed. We found a strong correlation between catalytic efficiency of substrates in vitro and their cell culture toxicity. […] This provides strong evidence that the cytotoxicity of DNQ and its derivatives are dependent primarily upon the activity of NQO1 within the cell.

[3] = Aqueous solubility in pH 7.4 PBS by LC-MS; format: physicochemical; settings: phosphate buffered saline, pH 7.4, aqueous buffer, thermodynamic from solid, PBS pH 7.4; Table 4.3
Method: The aqueous solubility of DNQ at pH 7.4 in phosphate buffered saline (PBS) was measured by LC-MS. DNQ was sonicated for 30 minutes in PBS then undissolved solid was removed by filtration through a 0.45 μm syringe filter and the filtrate was analyzed by LC-MS (λ=275 nm, ESI-TOF in negative mode). The optimal sonication time was determined by sonicating DNQ for 1, 5, 10, and 30 minutes. While the concentration of DNQ in solution increased substantially between 1, 5, and 10 minutes, there was only a minor difference between 10 and 30 minutes. During the 30 minute sonication the water bath warmed to 45° C. (samples were cooled to room temperature before filtration). A calibration curve was generated from 1-100 μM by dissolving DNQ in methanol to a concentration of 500 μM and making dilutions of this stock in 80:20 water:methanol. The calibration curve (measure by UV absorbance) was linear over this range; 1 μM was approximately the limit of detection. […] The solution was very pale yellow.
The aqueous solubility of the compounds was determined by an LC-MS assay as described in the specification above. We applied the calibration curve generated for DNQ to the derivatives under the assumption that the UV profile of the derivatives of DNQ would be similar to that of DNQ.
After sonication and filtration most of the aqueous solutions were colorless. The solutions of DNQ, 4-31, and 4-37 were faintly yellow while 4-8, 4-14 and 4-41 were substantially more colored. The solution of 4-8, 4-14 and 4-41 were diluted 10-fold with PBS prior to LC-MS analysis to ensure that the concentrations fell within the range of the calibration curve.

[4] = Solubility in organic solvents; format: physicochemical; settings: organic solvent or mixture, thermodynamic from solid; THF; Table 1
[5] = Solubility in organic solvents; format: physicochemical; settings: for solubility: organic solvent or mixture, thermodynamic from solid
Method: The solubility of DNQ derivatives in organic solvents was determined by measuring the amount of a given solvent required to dissolve a known amount of compound. Solvent was added to the compound in 50 μL aliquots and the slurry was sonicated. […] Solubility was assessed in DMSO, dichloromethane, and 33% methanol in dichloromethane (FIGS. 9, 10, and 11, respectively).

[6] = Solubility in 20% HPβCD solution (pH modulation protocol); format: physicochemical; settings: 20% HPβCD in pH 7.4 PBS, pH 7.4, aqueous with cosolvent or surfactant or cyclodextrin, thermodynamic from solid; 20% HPβCD; Table 4.3
Method: The protocol for formulating DNQ compounds in HPβCD is as follows: the DNQ compound is slurried in a 20% solution of HPβCD in pH 7.4 PBS and the pH is then increased by the addition of 10 M NaOH to induce dissolution of the DNQ compound. The pH is returned to pH 7.5-8.0 by the careful addition of 1 M HCl. A 3.3 mM solution of the DNQ compound can be made by this method which is stable at least 24 hours. This represents a 30-fold increase in solubility of DNQ over PBS alone.
Although we were pleased to find active derivatives of DNQ that were up to 4-fold more soluble in water—sufficiently soluble for continuous IV infusion for human administration—this level of solubility was insufficient for animal studies by bolus injection. […] We used the same pH modulation protocol outlined for DNQ described in the specification above. The results are organized in Table 4.3 and FIG. 8. While all compounds were more soluble in HPβCD than in buffer alone, the fold increase in solubility varied widely.

[7] = test system: MCF-7 cells; assay: Cytotoxicity to MCF-7 cells with or without 25 μM dicoumarol (sulforhodamine B assay); format: cell-based, human; settings: for IC50: Homo sapiens; for Fold Protection of MCF7 cells w/ 25 μM dicoumarol: Table 1
Method: The NQO1-dependent cytotoxicity of the first set of derivatives was determined in MCF-7 cells which express high levels of NQO1. Cells were exposed to DNQ for 2 hours in the presence or absence of 25 μM DIC. The media was then removed and cells were washed once with media then fresh media was added and the cells were incubated for 72 hours. Cell death was assessed using the sulforhodamine B assay previously described. […] Substitution off the nitrogen appeared well tolerated (4-14 and 4-15).
The DNQ derivatives synthesized were assayed for their toxicity to MCF-7 cells with or without DIC. The data from these experiments is organized in Table 4.2. […] This tolerance of sterically-demanding substituents corresponds with a flexible and promiscuous NQO1 active site. The poor activity of hydroxyl derivative 4-41 may be a result of either poor binding with the largely hydrophobic NQO1 active site or with an excessively strong substrate-enzyme interaction because of hydrogen bonding.

[8] = test system: PAR-PARP1; assay: PARP1 hyperactivation (PAR-PARP1 formation) in vivo in orthotopic Lewis Lung Carcinoma model, immunoblotting; design: species or system NOD/SCID mice; settings: iv at or near MTD
Method: Antibodies that specifically detect poly(ADP-ribosyl)ated α-PAR (BD Pharmingen, San Jose, Calif.) proteins (e.g., the most abundant species, poly(ADP-ribosyl)ated PARP1, PAR-PARP1) and α-PARP1 (sc-8007, Santa Cruz Biotechnology) antibodies were used at 1:4000 and 1:2000 dilutions, respectively. α-Tubulin was monitored for loading.
To generate a known control to monitor the formation of poly(ADP-ribose)ylated-polymerase 1 (PAR-PARP1) in cells, LLC tumor cells were treated in vitro with hydrogen peroxide (H2O2, 0.5 μM) for 15 minutes, and whole cell protein lysates were separated by SDS-PAGE using the α-PAR (BD Pharmingen, San Jose, Calif.) antibody described above. PAR-PARP1 formation was then assessed by immunoblot analyses as previously described in Huang et al., Cancer Research, 2012.
LLC cells (1.0×10^6) were intravenously (iv) injected into the tail veins of female 18-20 gram NOD/SCID mice. Establishment of tumor nodules in the lungs of exposed mice were confirmed by bioluminescence and mice (5/group) were treated intravenously (via tail vein injection) with: (i) hydroxypropyl-beta-cyclodextrin (HPRCD) vehicle alone; (ii) DNQ (7.5 mg/kg); (ii) DNQ-87 (14 mg/kg); (iii) DNQ-107 (10 mg/kg); or (vi) DNQ 9-251 (20 mg/kg) dissolved in HPRCD. At specific times indicated (in mins) after injection of vehicle or drug, mice were euthanized, lungs removed and tumor nodules harvested. […] Extracts from cells treated with H2O2 were used as controls for monitoring PAR-PARP1 formation in LLC tumor cells.

[9] = 2:1 CH2Cl2:MeOH, Table 4.3, read-out: Solubility in 2:1 CH2Cl2:MeOH
[10] = CH2Cl2:MeOH 2:1, Table 1, read-out: CH2Cl2:MeOH 2:1 solubility
[11] = CH2Cl2, Table 1, read-out: CH2Cl2 solubility
[12] = DMSO, Table 1, read-out: DMSO solubility
[13] = MCF7, Table 1, read-out: MCF7 IC50
[14] = MCF7, Table 4.2, no DIC, ± s.e., read-out: IC50 vs. MCF-7 cells
[15] = MCF7, classification in figure legends of FIGS. 7-11, read-out: IC50 ("active" / generally "inactive" compounds)
[16] = MCF7, read-out: IC50 vs. MCF-7 cells +25 μM DIC, Table 4.2, +25 μM DIC, ± s.e.
[17] = MCF7, 2 h, Table 4.1, 2 h exposure, no DIC, ± s.e., read-out: IC50 vs. MCF-7 cells
[18] = MCF7, read-out: IC50 vs. MCF-7 cells +25 μM DIC, Table 4.1, +25 μM DIC, ± s.e.

Structure (SMILES)	MTD at 5 days ([1]; in vivo)	NQO1 Initial Velocity @ 1 μM [2]	solubility at 30 min [3]	solubility [4]	Solubility in CH2Cl2 ([5]; CH2Cl2, Table 4.3)	Solubility in DMSO ([5]; DMSO, Table 4.3)	solubility [5, 9]	solubility [5, 10]	solubility [5, 11]	solubility [5, 12]	solubility [6]	IC50 [7, 13]	IC50 [7, 14]	IC50 [7, 15]	IC50 [7, 16]	Fold Protection of MCF7 cells w/ 25 μM dicoumarol [7]	Fold protection by DIC ([7]; Table 4.2)	IC50 [7, 17]	IC50 [7, 18]	Fold protection by DIC ([7]; Table 4.1)	further results
CCCCCn1c2c(c(C)cc1=O)C(=O)c1c(C)cc(=O)[nH]c1C2=O [Compound 9-255]	≥ 15 mg/kg and ≥ 44 µmol/kg	1700 ± 40	< 0.005 mM	16 mM (≈ 5450 µg/mL)	22 mM (≈ 7490 µg/mL)	17 mM (≈ 5790 µg/mL)	95 mM (≈ 32300 µg/mL)	95 mM (≈ 32300 µg/mL)	22 mM (≈ 7490 µg/mL)	17 mM (≈ 5790 µg/mL)	5 mM (≈ 1700 µg/mL)	0.19 ± 0.01 µM	0.2 ± 0.01 µM	< 0.5 µM	2 ± 0.9 µM	11	10				
CCc1cc(=O)n(C)c2c1C(=O)c1c(C)cc(=O)[nH]c1C2=O [Compound 107]		1400 ± 100	0.439 mM (≈ 131 µg/mL)	4.7 mM (≈ 1400 µg/mL)	5.5 mM (≈ 1640 µg/mL)	31 mM (≈ 9250 µg/mL)	37 mM (≈ 11000 µg/mL)	37 mM (≈ 11000 µg/mL)	5.5 mM (≈ 1640 µg/mL)	31 mM (≈ 9250 µg/mL)	4.4 mM (≈ 1310 µg/mL)	0.28 µM		< 0.5 µM		4.5		0.28 ± 0.06 µM	1.3 ± 0.4 µM	4.5	MTD at 5 days [1]: ≤ 10 mg/kg and ≤ 35 µmol/kg; PAR-PARP1 formation in tumor tissue [8]: higher levels of PAR-PARP1 formation
CCn1c2c(c(C)cc1=O)C(=O)c1c(C)cc(=O)[nH]c1C2=O [Compound 109]	10 mg/kg and 35 µmol/kg	1500 ± 100	0.319 mM (≈ 95.2 µg/mL)	18 mM (≈ 5370 µg/mL)	9.5 mM (≈ 2830 µg/mL)	24 mM (≈ 7160 µg/mL)	19 mM (≈ 5670 µg/mL)	19 mM (≈ 5670 µg/mL)	9.5 mM (≈ 2830 µg/mL)	24 mM (≈ 7160 µg/mL)	5.7 mM (≈ 1700 µg/mL)	0.53 µM		< 0.5 µM		4.5		0.2 ± 0.01 µM	3.4 ± 0.2 µM	17	
CCCCCCn1c2c(c(C)cc1=O)C(=O)c1c(C)cc(=O)[nH]c1C2=O [Compound 9-257]	≥ 16 mg/kg and ≥ 44 µmol/kg	1850 ± 60	< 0.005 mM	27 mM (≈ 9570 µg/mL)	32 mM (≈ 11300 µg/mL)	18 mM (≈ 6380 µg/mL)	140 mM (≈ 49600 µg/mL)	140 mM (≈ 49600 µg/mL)	32 mM (≈ 11300 µg/mL)	18 mM (≈ 6380 µg/mL)	6 mM (≈ 2130 µg/mL)	0.26 ± 0.04 µM	0.29 ± 0.04 µM	< 0.5 µM	3 ± 0.6 µM	11	10				
